In brackets after ≈: the same amount, converted by molar mass.
Tests used:
[1] = biological target: T1, glucocerebrosidase (Gcase) (Homo sapiens, UniProt P04062); assay: Glucocerebrosidase (Gcase) activation assay, 4-methylumbelliferyl-beta-D-glucopyranoside substrate, fluorescence; assay type: biochemical; conditions: 0.25 h, 10 nM GCase, 100 nM saposin C; for activation at 0.1 µM: pH 4.7, test compound at 0.1 μM, read-out: Percent Gcase Activation 0.1 μM Test Compound; for activation at 1 µM: pH 4.7, test compound at 1.0 μM, read-out: Percent Gcase Activation 1 μM Test Compound
T1 sequence (P04062 40-536): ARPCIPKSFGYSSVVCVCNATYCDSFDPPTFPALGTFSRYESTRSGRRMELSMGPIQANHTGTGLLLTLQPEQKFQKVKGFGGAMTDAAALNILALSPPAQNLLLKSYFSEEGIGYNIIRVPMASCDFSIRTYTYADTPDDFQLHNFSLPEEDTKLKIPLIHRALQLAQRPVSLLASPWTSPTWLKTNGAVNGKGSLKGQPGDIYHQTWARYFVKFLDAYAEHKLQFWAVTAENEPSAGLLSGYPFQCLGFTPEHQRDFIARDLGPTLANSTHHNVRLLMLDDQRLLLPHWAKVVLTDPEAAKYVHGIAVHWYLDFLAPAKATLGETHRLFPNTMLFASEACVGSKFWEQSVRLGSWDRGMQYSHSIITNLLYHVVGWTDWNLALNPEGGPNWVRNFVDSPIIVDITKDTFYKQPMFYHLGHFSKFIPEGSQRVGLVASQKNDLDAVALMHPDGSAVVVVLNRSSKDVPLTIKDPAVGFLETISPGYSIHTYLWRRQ
In short: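 10 nM GCase with 100 nM saposin C in Triton/phosphatidylserine micelles (citrate-phosphate, pH 4.7), pre-incubated 30 min at room temperature with compound, then 2 mM 4-methylumbelliferyl-β-D-glucoside stock mixed 1:1; 15 min reaction, stopped with glycine pH 12.5, fluorescence at 365/440 nm. Activation scored at 1.0 and 0.1 μM; 8-point curves from 5 μM top.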

[2] = Compound solubility in water; assay type: physicochemical

| Compound | activation at 0.1 µM [1] [%] | activation at 1 µM [1] [%] | solubility [2] [µg/mL] |
| --- | --- | --- | --- |
| Cc1cc(C)n2ccc(C(=O)NC(C)c3ccc4c(c3)OCO4)c2n1 (stereo not drawn) [IV-45] | < 10 | 30 to 60 | 5.7 (≈ 16.9 µM) |
| Cc1cc(C)n2ccc(C(=O)N[C@H](C)C3CC3)c2n1 [III-65] | < 10 | 30 to 60 | 20.7 (≈ 80.4 µM) |
| C#Cc1ccc(NC(=O)c2ccn3c(C)cc(-c4cccnc4)nc23)cc1 [III-61] | > 20 | > 60 | 1.2 (≈ 3.41 µM) |
| Cc1cc(Br)nc2c(C(=O)NC(C)(C)C3CC3)ccn12 [III-14] | 10 to 20 | > 60 | 2.9 (≈ 8.62 µM) |
| COc1cccc([C@H](C)NC(=O)c2ccn3c(C)cc(C)nc23)c1 [IV-33] | 10 to 20 | > 60 | 9.4 (≈ 29.1 µM) |
| CCOc1ccc(C(CC)NC(=O)c2ccn3c(C)cc(C)nc23)cc1F (stereo not drawn) [IV-51] | > 20 | > 60 | 0.3 (≈ 0.812 µM) |
| Cc1cc(C)n2ccc(C(=O)NC(C)C3CCCCC3)c2n1 (stereo not drawn) [III-62] | > 20 | > 60 | 5.1 (≈ 17 µM) |
| Cc1c2c(nc3c(C(=O)NC(C)(C)C4CC4)ccn13)CCC2 [III-73] | 10 to 20 | > 60 | 0.9 (≈ 3.03 µM) |
| COCc1cc(C)n2ccc(C(=O)N[C@H]3CC[C@H](OCC(C)(C)C)CC3)c2n1 [IV-1] | > 20 | > 60 | 2.5 (≈ 6.45 µM) |
| COc1cc(C)n2ccc(C(=O)NC(C)(C)C3CC3)c2n1 [III-13] | 10 to 20 | > 60 | 11.5 (≈ 40 µM) |
| Cc1cc(C)n2ccc(C(=O)NC(C)(C)c3ccc4c(c3)OCCO4)c2n1 [IV-19] | > 20 | > 60 | 2.1 (≈ 5.75 µM) |
| Cc1cc(Cl)n2ccc(C(=O)NC(C)(C)C3CC3)c2n1 [III-12] | 10 to 20 | > 60 | 5.8 (≈ 19.9 µM) |
| C[C@H](NC(=O)c1ccn2c(C(F)F)cc(C(F)F)nc12)C1CC1 [III-6] | 10 to 20 | > 60 | 33.5 (≈ 102 µM) |
| Cc1cc(NC2CCOCC2)nc2c(C(=O)NC(C)(C)C3CC3)ccn12 [III-38] | 10 to 20 | > 60 | 10.1 (≈ 28.3 µM) |
| Cc1cc(C)n2cc(C)c(C(=O)N[C@@H](C)C3CC3)c2n1 [III-27] | 10 to 20 | > 60 | 8.6 (≈ 31.7 µM) |
| C[C@H](NC(=O)c1ccn2ccc(-c3ccc(F)cc3)nc12)C1CC1 [III-47] | < 10 | 30 to 60 | 0.1 (≈ 0.309 µM) |

| Compound | activation at 0.1 µM [1] [%] | activation at 1 µM [1] [%] | solubility [2] [µg/mL] |
| --- | --- | --- | --- |
| Cc1cc(Cl)nc2c(C(=O)NC(C)(C)C3CC3)ccn12 [III-11] | > 20 | > 60 | 1.1 (≈ 3.77 µM) |
| Cc1cc(C)n2ccc(C(=O)NC(=O)C3CC3)c2n1 [III-74] | < 10 | < 30 | 24.8 (≈ 96.4 µM) |
| COCc1cc(C)nc2c(C(=O)N[C@H]3CC[C@H](OCC(C)(C)C)CC3)ccn12 [IV-2] | > 20 | > 60 | 4.2 (≈ 10.8 µM) |
| Cc1c2c(nc3c(C(=O)N[C@H]4CC[C@H](OC(C)(C)C)CC4)ccn13)CCC2 [III-71] | < 10 | 30 to 60 | 8 (≈ 21.7 µM) |
| Cc1cc(C)n2ccc(C(=O)NC(C)c3ccc4c(c3)CC(C)O4)c2n1 (stereo not drawn) [IV-79] | > 20 | > 60 | 2.6 (≈ 7.44 µM) |
| COCc1cc(C)nc2c(C(=O)NC(C)(C)C3CC3)ccn12 [III 16] | > 20 | > 60 | 19.8 (≈ 65.7 µM) |
| Cc1cc(C)n2ccc(C(=O)NC(C)c3ccc4ccccc4c3)c2n1 (stereo not drawn) [IV-31] | > 20 | > 60 | 0.2 (≈ 0.582 µM) |
| Cc1cc(C(F)F)n2ccc(C(=O)N[C@H]3CC[C@H](OCC(C)(C)C)CC3)c2n1 [IV-10] | > 20 | > 60 | 0.3 (≈ 0.762 µM) |
| Cc1cc(C)n2ccc(C(=O)NC(C)c3nc4c(s3)CCCC4)c2n1 (stereo not drawn) [IV-64] | 10 to 20 | > 60 | 4.9 (≈ 13.8 µM) |
| Cc1cc(C)n2ccc(C(=O)N[C@@H](C)c3ccc(F)cc3)c2n1 [IV-21] | > 20 | > 60 | 3.3 (≈ 10.6 µM) |
| COCc1cc(C(F)F)nc2c(C(=O)NC(C)(C)C3CC3)ccn12 [III-3] | > 20 | > 60 | 3.8 (≈ 11.3 µM) |
| Cc1cc(C(F)F)nc2c(C(=O)N[C@@H](C)C3CC3)ccn12 [III-7] | > 20 | > 60 | 9.5 (≈ 32.4 µM) |
| Cc1cc(C)n2ccc(C(=O)NC(C)(c3ccccc3)c3ccccc3)c2n1 [IV-39] | 10 to 20 | > 60 | 0.8 (≈ 2.17 µM) |
| COCc1cc(C(F)F)nc2c(C(=O)NC(C)(C)C3CCC3)ccn12 [III-5] | 10 to 20 | > 60 | 3 (≈ 8.54 µM) |
| Cc1c(-c2ccc(F)cc2)cnc2c(C(=O)N[C@@H](C)C3CC3)ccn12 [III-51] | < 10 | < 30 | 0.1 (≈ 0.296 µM) |
| Cc1cc(C)n2ccc(C(=O)NC(C)(C)c3cccc4ccccc34)c2n1 [IV-48] | > 20 | > 60 | 0.6 (≈ 1.68 µM) |

From patent US11124516B2, “Pyrrolo[1,2-A]pyrimidinyl carboxamide compounds and their use in the treatment of medical disorders” (Bial—Biotech Investments, Inc., priority 2016, dated 2021)
